Test results reported in US20090318493A1 (Roche Palo Alto LLC, priority 2008, published 2009).
Read-outs that look alike come from different tables or passages of the source.

Key:
Format in all cases: binding
hNET transporter = target: T1, hNET transporter (Homo sapiens, UniProt P23975); test: Human norepinephrine transporter (hNET) scintillation proximity assay, competition with [3H]-Nisoxetine
T1 construct: expressed in transfected cells; membranes prepared
Experimental: This assay was used to determine the affinity of ligands for the hNET transporter by competition with [^3H]-Nisoxetine. As in the hSERT assay of the above example, receptor-containing membranes were pre-coupled to the SPA beads and the binding of the appropriate radioligand to the transporter was measured. The light emission was proportional to the amount of bound radioligand, with unbound radioligand producing no signal.
HEK-293 cells (Tatsumi et al., Eur. J. Pharmacol. 1997, 30, 249-258) stably expressing recombinant hNET (Clone: HEK-hNET #2) were maintained with media (DMEM hi glucose with 10% FBS, 300 μg/ml G418 and 2 mM L-Glutamine) and incubated at 37° C. with 5% CO2. Cells were released from culture flasks using PBS for 1-2 minutes. The cells were subsequently centrifuged at 1000 g's for 5 minutes and resuspended in PBS prior to being used in the membrane preparation.
(§1) Cell membranes were prepared using a membrane preparation buffer of 50 mM TRIS (pH 7.4). Cell membranes were prepared from a single cube (7.5×10^9cells total). Cells were homogenized using a Polytron (setting medium for a 4 second burst). The homogenate was then centrifuged at 48,000×g for 15 minutes, the supernatant subsequently removed and discarded, and the pellet resuspended with fresh buffer. After a second centrifugation, the pellet was re-homogenized and brought to a final volume determined during the assay. Typically, membrane portions were aliquoted in 3-6 mg/mil (w:v). and stored at −80° C.
^3[H] […] Compounds of the invention were diluted from 10 mM to 0.1 nM FAC (10 point curves, whole log /half log dilutions) via a Beckman Biomek 2000 using a serial dilution protocol. The test compounds were then transferred (20 μl/well) and the radioligand was added at 50 μl/well. Membrane and beads were prepared to a ratio of 10 μg: 0.7 mg, with 0.7 mg PVT-WGA Amersham beads (Cat# RPQ0282V) added per well. 130 μl of the membrane: bead mixture was added to the assay plate. The mixtures were allowed to stand at room temperature for one hour, and were then counted on a Packard TopCount LCS, a generic SPA counting protocol settings (Energy Range: Low, Efficiency Mode: Normal, Region A: 1.50-35.00, Region B: 1.50-256.00, Count Time (min.): 0.40, Background Subtract: none, Half-Life Correction: no, Quench Indicator: tSIS, Platemap blank subtraction: No, Cross talk reduction: Off).
The % inhibition was calculated for each compound tested [(Compound CPM at maximum concentration-Non-Specific CPM)/Total CPM*100]. The concentration producing 50% inhibition (IC50) was determined using an iterative non-linear curve fitting technique with Activity Base/Xlfit using the following equation:
(§2) where max=total binding, min=non specific binding, x=concentration (M) of the tested compound and n=Hill slope. The inhibition dissociation constant (Ki) of each compound was determined according to the method of Cheng-Prusoff and then converted into negative logarithm (pKi) of the Ki.

hSERT transporter = target: T2, hSERT transporter (Homo sapiens, UniProt P31645); test: Human serotonin transporter (hSERT) scintillation proximity assay, competition with [3H]-Citalopram
T2 construct: expressed in transfected cells; membranes prepared
T2 sequence (P31645 whole entry): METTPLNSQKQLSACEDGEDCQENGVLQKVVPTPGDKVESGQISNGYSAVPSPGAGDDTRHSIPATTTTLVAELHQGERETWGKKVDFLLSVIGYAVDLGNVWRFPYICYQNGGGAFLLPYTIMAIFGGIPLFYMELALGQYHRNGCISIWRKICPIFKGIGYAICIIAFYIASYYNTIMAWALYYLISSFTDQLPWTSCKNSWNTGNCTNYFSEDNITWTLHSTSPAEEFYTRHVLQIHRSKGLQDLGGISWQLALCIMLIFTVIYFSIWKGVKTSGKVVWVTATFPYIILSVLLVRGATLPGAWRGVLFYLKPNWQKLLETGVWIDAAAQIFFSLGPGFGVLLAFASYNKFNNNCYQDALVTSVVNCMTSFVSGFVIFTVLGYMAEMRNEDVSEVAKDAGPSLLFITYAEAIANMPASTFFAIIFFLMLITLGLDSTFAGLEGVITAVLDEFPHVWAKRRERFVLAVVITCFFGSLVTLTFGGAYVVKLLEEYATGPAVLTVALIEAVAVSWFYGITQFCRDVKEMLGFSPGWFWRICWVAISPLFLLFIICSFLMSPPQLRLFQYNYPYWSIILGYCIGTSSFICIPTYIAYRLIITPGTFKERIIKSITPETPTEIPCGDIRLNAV
Description: Screening for Human Serotonin Transporter (hSERT) Antagonists Using a Scintillation Proximity Assay (SPA)
The screening assay of this example was used to determine the affinity of ligands at the hSERT transporter by competition with [^3H]-Citalopram.
Scintillation Proximity Assay (SPA) works by bringing radioligand within close proximity to the bead's scintillant to stimulate light emission. In this assay, the receptor-containing membranes were pre-coupled to the SPA beads and the binding of the appropriate radioligand to the transporter was measured. The light emission was proportional to the amount of bound radioligand. Unbound radioligand produced no signal as a result of distant proximity to scintillant (lack of energy transfer).
Cells are released from culture flasks using PBS for 1-2 minutes. The cells were subsequently centrifuged at 1000 g's for 5 minutes and resuspended in PBS prior to being used in the membrane preparation.
as §1, with “(7.5×10^9 cells” for “(7.5×10^9cells”, “3 mg/ml” for “3-6 mg/mil”
Compounds of the invention were diluted from 10 mM to 0.1 nM FAC (10 point curves, whole log/half log dilutions) via a Beckman Biomek 2000 using a serial dilution protocol. The test compounds were then transferred (20 μl/well) and the [^3H]-Citalopram radioligand was added at 50 μl/well. Membrane and beads were prepared to a ratio of 10 μg: 0.7 mg, with 0.7 mg PVT-WGA Amersham beads (Cat# RPQ0282V) added per well. 130 μl of the membrane: bead mixture was added to the assay plate.
The % inhibition was calculated for each compound tested [(Compound counts per minute (CPM) at maximum concentration-Non-Specific CPM)/Total CPM*100].
as §2

hDAT = target: T3, hDAT (Homo sapiens, UniProt Q01959); test: Human dopamine transporter scintillation proximity assay, competition with [3H]-Vanoxerine
T3 construct: expressed in transfected cells; plated whole cells
T3 sequence (Q01959 whole entry): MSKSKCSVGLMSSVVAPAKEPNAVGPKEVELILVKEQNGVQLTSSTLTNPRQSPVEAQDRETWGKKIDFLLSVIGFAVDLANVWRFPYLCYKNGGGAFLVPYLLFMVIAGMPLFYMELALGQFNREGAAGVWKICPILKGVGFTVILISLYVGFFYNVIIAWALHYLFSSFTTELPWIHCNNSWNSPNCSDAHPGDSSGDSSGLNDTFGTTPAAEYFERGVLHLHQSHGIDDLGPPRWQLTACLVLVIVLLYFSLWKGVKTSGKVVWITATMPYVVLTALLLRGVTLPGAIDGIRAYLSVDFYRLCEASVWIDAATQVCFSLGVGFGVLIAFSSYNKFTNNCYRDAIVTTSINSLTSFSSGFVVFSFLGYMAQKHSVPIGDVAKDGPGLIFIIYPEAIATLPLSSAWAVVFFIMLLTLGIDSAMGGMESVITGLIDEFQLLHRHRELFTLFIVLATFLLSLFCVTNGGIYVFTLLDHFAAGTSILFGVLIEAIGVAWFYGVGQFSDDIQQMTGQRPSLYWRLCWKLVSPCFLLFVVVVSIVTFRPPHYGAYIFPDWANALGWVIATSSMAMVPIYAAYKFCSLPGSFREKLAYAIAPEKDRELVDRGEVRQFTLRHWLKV
Experimental: This assay was used to determine the affinity of ligands for the dopamine transporter by competition with [^3H]-Vanoxerine.
Cells were plated four hours prior to experiment by placing approximately 30,000 cells per well (in PBS) on white, opaque Cell-Tak coated 96 well plates. Extra buffer was apriated from the cell plates using an ELx405 plate washer.
Compounds of the invention were diluted from 10 mM to 0.1 nM FAC (10 point curves, whole log/half log dilutions) via a Beckman Biomek 2000 using a 10-point dilution protocol. The mixtures were allowed to stand at room temperature for 30 minutes, and were then counted on a Packard TopCount LCS, a generic SPA counting protocol settings, Count Time (min.): 0.40, Background Subtract: none, Half-Life Correction: none, Quench Indicator: tSIS, Platemap blank subtraction: none, Cross talk reduction: Off).
The % inhibition was calculated for each compound tested [(Compound CPM at maximum concentration-Non-Specific CPM)/Total CPM*100].
as §2

[1] = Table 1, read-out: pIC50 DAT (converted)
[2] = Table 1, read-out: pIC50 NET (converted)
[3] = Table 1, read-out: pIC50 SERT (converted)

T1 sequence (P23975 whole entry): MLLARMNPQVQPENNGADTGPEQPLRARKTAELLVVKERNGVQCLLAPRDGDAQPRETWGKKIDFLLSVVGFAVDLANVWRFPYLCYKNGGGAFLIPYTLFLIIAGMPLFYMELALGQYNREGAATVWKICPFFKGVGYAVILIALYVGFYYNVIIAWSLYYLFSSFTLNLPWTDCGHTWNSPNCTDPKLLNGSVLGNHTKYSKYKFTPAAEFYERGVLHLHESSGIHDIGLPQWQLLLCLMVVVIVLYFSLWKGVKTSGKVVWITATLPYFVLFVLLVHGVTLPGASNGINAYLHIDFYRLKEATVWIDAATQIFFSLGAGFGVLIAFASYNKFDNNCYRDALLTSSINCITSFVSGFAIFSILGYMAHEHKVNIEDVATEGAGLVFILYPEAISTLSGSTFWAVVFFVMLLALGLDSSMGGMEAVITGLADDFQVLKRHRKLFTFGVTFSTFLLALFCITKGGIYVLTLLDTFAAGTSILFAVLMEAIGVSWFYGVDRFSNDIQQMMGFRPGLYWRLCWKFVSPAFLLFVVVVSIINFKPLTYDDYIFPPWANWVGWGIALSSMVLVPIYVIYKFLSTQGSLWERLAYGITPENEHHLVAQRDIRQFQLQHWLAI

Row | Compound | IC50 (hNET transporter) | IC50 (hSERT transporter) | IC50 (hDAT; [1]) | IC50 (hNET transporter; [2]) | IC50 (hSERT transporter; [3]) | IC50 (hDAT)
1 | CC(C)CCC1(C(=O)c2ccc(Cl)c(Oc3ccccc3)c2)CCNC1 (stereo not drawn) [Compound 12] | 12 nM | 43.7 nM | 1480 nM |  |  | 
2 | CCCC1(C(=O)c2ccc(Cl)c(Sc3ccccc3)c2)CCNC1 (stereo not drawn) [Compound 15, (4-Chloro-3-phenylsulfanyl-phenyl)-(3-propyl-pyrrolidin-3-yl)-methanone] | 87.1 nM | 34.7 nM | 110 nM |  |  | 
3 | CCCC1(C(=O)c2ccc(Cl)c(S(=O)(=O)c3ccccc3)c2)CCNC1 (stereo not drawn) [Compound 16, (3-Benzenesulfonyl-4-chloro-phenyl)-(3-propyl-pyrrolidin-3-yl)-methanone] |  |  | 661 nM | 4900 nM | 191 nM | 
4 | CCCC1(C(=O)c2ccc(Cl)c(Oc3ccccc3F)c2)CCNC1 (stereo not drawn) [Compound 17, [4-Chloro-3-(2-fluoro-phenoxy)-phenyl]-(3-propyl-pyrrolidin-3-yl)-methanone] |  | 47.9 nM |  | 24 nM |  | 15.8 nM
5 | CCCC1(C(=O)c2ccc(Cl)c(Oc3ccc(F)cc3)c2)CCNC1 (stereo not drawn) [Compound 18, [4-Chloro-3-(4-fluoro-phenoxy)-phenyl]-(3-propyl-pyrrolidin-3-yl)-methanone] |  | 24 nM |  | 15.1 nM |  | 16.6 nM
6 | CCC1(C(=O)c2ccc(Cl)c(Oc3ccccc3)c2)CCNC1 (stereo not drawn) [Compound 19, (4-Chloro-3-phenoxy-phenyl)-(3-ethyl-pyrrolidin-3-yl)-methanone] |  | 57.5 nM |  | 26.3 nM |  | 7.59 nM
7 | CC(C)CC[C@@]1(C(=O)c2cc(F)c(N)c(Cl)c2)CCNC1 [Compound 21, (4-Amino-3-chloro-5-fluoro-phenyl)-[(R)-3-(3-methyl-butyl)-pyrrolidin-3-yl]-methanone] |  | 3.31 nM |  | 1.91 nM |  | 1.51 nM
8 | CC(C)CC[C@]1(C(=O)c2cc(F)c(N)c(Cl)c2)CCNC1 [Compound 22, (4-Amino-3-chloro-5-fluoro-phenyl)-[(S)-3-(3-methyl-butyl)-pyrrolidin-3-yl]-methanone] | 33.1 nM |  |  |  | 132 nM | 83.2 nM
9 | CC(C)C[C@@]1(C(=O)c2cc(F)c(N)c(Cl)c2)CCNC1 [Compound 23] |  | 4.79 nM |  | 3.98 nM |  | 6.17 nM
10 | CC(C)(C)CC[C@]1(C(=O)c2cc(F)c(N)c(Cl)c2)CCNC1 [Compound 25, (4-Amino-3-chloro-5-fluoro-phenyl)-[(S)-3-(3,3-dimethyl-butyl)-pyrrolidin-3-yl]-methanone] |  | 1.74 nM |  | 0.977 nM |  | 0.55 nM
11 | CC(C)(C)CC[C@@]1(C(=O)c2cc(F)c(N)c(Cl)c2)CCNC1 [Compound 26, (4-Amino-3-chloro-5-fluoro-phenyl)-[(R)-3-(3,3-dimethyl-butyl)-pyrrolidin-3-yl]-methanone] |  | 75.9 nM |  | 25.1 nM |  | 26.9 nM
12 | CC(C)C[C@@]1(C(=O)c2ccc(N)c(Cl)c2)CCNC1 [Compound 27, (4-Amino-3-chloro-phenyl)-((R)-3-isobutyl-pyrrolidin-3-yl)-methanone] | 55 nM | 8.32 nM | 174 nM |  |  | 
13 | CC(C)C[C@]1(C(=O)c2ccc(N)c(Cl)c2)CCNC1 [Compound 28, (4-Amino-3-chloro-phenyl)-((S)-3-isobutyl-pyrrolidin-3-yl)-methanone] |  | 0.117 nM |  | 3.02 nM |  | 0.832 nM
14 | CC(C)CC1(C(=O)c2ccc(Cl)c(Oc3ccccc3)c2)CCNC1 (stereo not drawn) [Compound 31, (4-Chloro-3-phenoxy-phenyl)-(3-isobutyl-pyrrolidin-3-yl)-methanone] |  | 3.72 nM |  | 1.91 nM |  | 26.3 nM
15 | CCCC1(C(=O)c2ccc(Cl)c(Oc3ccc(C(F)(F)F)cc3)c2)CCNC1 (stereo not drawn) [Compound 32, [4-Chloro-3-(4-trifluoromethyl-phenoxy)-phenyl]-(3-propyl-pyrrolidin-3-yl)-methanone] |  |  | 331 nM | 200 nM | 166 nM | 
16 | CC1(CC2(C(=O)c3ccc(Cl)c(Cl)c3)CCNCC2)CC1 [Compound 34, (3,4-Dichloro-phenyl)-[4-(1-methyl-cyclopropylmethyl)-piperidin-4-yl]-methanone] |  |  | 2.24 nM | 66.1 nM | 0.501 nM | 
17 | Cc1ccc(C(=O)C2(CC(C)C)CCNCC2)cc1Cl [Compound 35, (3-Chloro-4-methyl-phenyl)-(4-isobutyl-piperidin-4-yl)-methanone] |  |  | 10.5 nM | 45.7 nM | 0.589 nM | 
18 | CCCC1(C(=O)c2ccc3ccccc3c2)CCNCC1 [Compound 36, Naphthalen-2-yl-(4-propyl-piperidin-4-yl)-methanone] |  | 0.102 nM |  | 15.8 nM |  | 9.12 nM
19 | COC(C)(C)CC1(C(=O)c2ccc(Cl)c(Cl)c2)CCNCC1 [Compound 37, (3,4-Dichloro-phenyl)-[4-(2-methoxy-2-methyl-propyl)-piperidin-4-yl]-methanone] |  |  | 4.79 nM | 105 nM | 1.12 nM | 
20 | Cc1ccc(C(=O)C2(CCC(C)C)CCNCC2)cc1Cl [Compound 38, (3-Chloro-4-methyl-phenyl)-[4-(3-methyl-butyl)-piperidin-4-yl]-methanone] |  |  | 14.8 nM | 135 nM | 3.47 nM | 
21 | O=C(c1ccc(Cl)c(Cl)c1)C1(CC2CCCC2)CCNCC1 [Compound 39, (4-Cyclopentylmethyl-piperidin-4-yl)-(3,4-dichloro-phenyl)-methanone] |  |  | 3.16 nM | 41.7 nM | 1.48 nM | 
22 | CCCC1(C(=O)c2ccc(Cl)cc2Oc2ccccc2)CCNCC1 [Compound 40, (4-Chloro-2-phenoxy-phenyl)-(4-propyl-piperidin-4-yl)-methanone] |  |  | 1480 nM | 27.5 nM | 69.2 nM | 
23 | O=C(c1ccc(Cl)c(Cl)c1)C1(CC2CCOCC2)CCNCC1 [Compound 41, (3,4-Dichloro-phenyl)-[4-(tetrahydro-pyran-4-ylmethyl)-piperidin-4-yl]-methanone] |  |  | 7.94 nM | 209 nM | 1.15 nM | 
